# Test results as given in PubChem BioAssay AID1508591.
# Settings: rat; liver microsomes; pH 7.4; 15.0 min; 1.0 µM
row,Compound,half-life
1,CCOC(=O)Nc1cc(-c2ccc(C)c(NS(C)(=O)=O)c2)nn2c(C)nnc12,> 30 min
2,O=C(Nc1nc(-c2ccccc2)cs1)c1ccncc1NS(=O)(=O)c1cccnc1,20 min
3,Oc1ccc(NCc2ccccc2OCc2ccccc2Cl)cc1,2.03 min
4,CCOc1ccccc1N1CC(c2nc3ccccc3n2CCOc2ccc(C(C)(C)C)cc2)CC1=O (configuration not stated),2.34 min
5,CN(C)S(=O)(=O)c1cccc(NC(=O)c2ccc[nH]2)c1,10.5 min
6,O=C(Nc1nc(-c2ccccc2)cs1)c1ccncc1NS(=O)(=O)c1ccc2ccccc2c1,8.4 min
7,Cn1ccc2c(C(=O)NCCC(N)=O)nc(-c3cccc(CO)c3)cc21,> 30 min
8,CCOc1ccc(CCNC(=O)c2ccc(C(=O)c3ccccc3)cc2)cc1OCC,2.8 min
9,Cc1ccc(-c2ccc(CNc3nc(-c4ccccc4C(C)C)ncc3F)cc2)cn1,4.5 min
10,Cc1ccc(S(=O)(=O)Nc2ccccc2C(=O)Nc2ccc(-c3ccccc3)nc2)cc1,2.7 min
11,Nc1ncc(S(=O)(=O)N2CCOCC2)s1,> 30 min
12,O=C(Nc1nc(-c2ccccn2)cs1)c1cccc(S(=O)(=O)N2CCOCC2)c1,8.47 min
13,Cc1sc(NC(=O)Cc2ccc3c(c2)OCO3)nc1-c1ccc2c(c1)CCN2C,5.5 min
14,CNS(=O)(=O)c1cc(-c2nn3c(C)nnc3c3ccccc23)ccc1C,> 30 min
15,O=C1Nc2ccccc2/C1=C\c1ccc([N+](=O)[O-])cc1,4.92 min
16,Fc1cc(Nc2nc(-c3ccncc3)nc3ccccc23)ccc1C(F)(F)F,17 min
17,CN1CCN(C(=O)c2ccc3cc(CCNc4ncnc5ccc(C#N)cc45)ccc3c2)CC1,8.11 min
18,FC(F)(F)c1cc(-c2ccc(CNc3nc(-c4ccccc4C(F)(F)F)nc4ccsc34)cc2)ccn1,14.8 min
19,CSc1cc2c(s1)c1cnn(Cc3cccc(N)c3)c(=O)c1n2C,3.6 min
20,COc1cccc(-c2nc3cc(NC(=O)c4ccc(C)c([N+](=O)[O-])c4)ccc3o2)c1,> 30 min
21,O=S(=O)(Nc1nccs1)c1ccc(NCc2cccc(Br)c2O)cc1,14 min
22,C[C@@]1(O)[C@H](O)[C@@H](CO)O[C@H]1n1ccc(N)nc1=O,> 30 min
23,Cc1ccc(C)n1-c1cccc(C(=O)O)c1,12 min
24,Cc1c(C)n(Cc2ccccc2)c2ccc(C(=O)OCCN(C)C)cc12,1.78 min
25,CCOc1ccc(CCNC(=O)c2cc3sccc3n2Cc2ccccn2)cc1OCC,1.5 min
26,c1cc(-c2cc(-c3ccncc3)c3cncn3c2)c2[nH]ncc2c1,10.1 min

row,Compound,half-life
1,O=[S+]([O-])(Nc1ccc(N2CCNCC2)cc1)c1ccc(NCc2ccc(Cl)cc2O)cc1,> 30 min
2,Nc1c(S(=O)(=O)c2cccs2)c2nc3ccccc3nc2n1Cc1ccccc1,1.27 min
3,c1ccc(Nc2cc3c(cn2)CN(Cc2cccs2)CCN3)cc1,1.77 min
4,Clc1ccc(Nc2nc(-c3ccncc3)nc3ccccc23)cc1Cl,15 min
5,COc1ccc(NC(=O)c2cccnc2)cc1S(=O)(=O)Nc1ccc(Br)cc1,21 min
6,COc1ccccc1N1CCN(CCN(C(=O)c2ccc(F)cc2)c2ccccn2)CC1,2.02 min
7,Cc1nnc2n1-c1ccc(Cl)cc1C(c1ccccc1)=NC2,21.2 min
8,Nc1c(C(=O)Nc2ccc(Cl)cc2)sc2nc3c(cc12)N1CCC3CC1,24 min
9,O=S(=O)(Nc1nccs1)c1ccc(NCc2cccc(O)c2)cc1,> 30 min
10,COc1ccc(Nc2nnc(-c3ccc(C)c(S(=O)(=O)NCc4nc5ccccc5[nH]4)c3)c3ccccc23)cc1,5.72 min
11,CC[C@@H](C)Nc1cc(C(=O)NC2CC3CCC(C2)N3c2ccc(C(=O)C3CC3)cn2)c(C)cc1C(N)=O (some centres not stated),23.4 min
12,O=[S+]([O-])(Nc1ccccc1)c1ccc(NCc2cccc(Cl)c2F)cc1,4.5 min
13,COc1c(O)ccc2c1CN1CCc3cc4c(cc3[C@@H]1C2)OCO4,18.9 min
14,O=C(Nc1nc2cc(C(F)(F)F)ccc2s1)c1ccc(-c2cccc([N+](=O)[O-])c2)o1,> 30 min
15,Cc1ccccc1C(=O)N1CCc2cc(-c3csc(NC(=O)Cc4ccc5c(c4)OCO5)n3)ccc21,10.2 min
16,NC(=O)C1CCN(c2nc(-c3ccc4occc(=O)c4c3)cs2)CC1,6.19 min
17,COc1ccc(-n2c(C)c(C(C)=O)c3cc(O)ccc32)cc1,2.2 min
18,O=C(Nc1cccc(Cc2ccccc2)c1)c1ccc(-c2cccc([N+](=O)[O-])c2)o1,2.5 min
19,O=C(Nc1ncc(Cc2ccc(C(F)(F)F)cc2)s1)c1ccc(-c2ccccc2[N+](=O)[O-])o1,> 30 min
20,Fc1ccccc1-c1nc(NCc2ccc(-c3cccnc3)cc2)c2ccccc2n1,5.9 min
21,O=C(Nc1ccc(Cl)cc1)C(NS(=O)(=O)c1cccs1)c1ccccc1 (configuration not stated),5.38 min
22,O=C(Cn1c2ncccc2c(=O)n1-c1ccccc1)Nc1ccc(Cl)cc1C(F)(F)F,4.81 min
23,CCCN1C(CC(C)C)=NS(=O)(=O)c2cc(NC(=O)c3ccco3)ccc21,9.21 min
24,COc1ccc(CNC(=O)Cn2nc3c(cc2=O)CCCC3)cc1,> 30 min
25,COc1ccc(-c2ccc3nc(-c4cc(C)cc(C)c4)oc3c2)c(OC)c1OC,> 30 min
26,Clc1cccc(-c2ccc(-c3nnc(CCCc4ccc5cccnc5n4)o3)cc2)c1,2.3 min

row,Compound,half-life
1,Fc1cccc(F)c1Nc1nc(-c2ccncc2)nc2ccccc12,29 min
2,CCCc1oc2ccc(NS(=O)(=O)c3ccc(OC)cc3)cc2c1C(=O)OCC,1.37 min
3,CCOc1ccc(CCNC(=O)c2cc3sccc3n2Cc2ccccc2)cc1OCC,1.7 min
4,OC1(c2ccc(Cl)cc2)CCN(Cc2c[nH]c3ccccc23)CC1,3.89 min
5,COc1cc2nccc(Oc3ccc(NC(=O)Nc4cc(C)on4)c(Cl)c3)c2cc1OC,> 30 min
6,Fc1ccc(Nc2nc(-c3ccncc3)nc3ccccc23)cc1F,9.82 min
7,N=c1c2c(n(Cc3ccccc3)c3c1CCC3)CCC2,4.04 min
8,CC[C@@](C)(Nc1ccnc(-c2c[nH]c3ncccc23)n1)C(=O)NCC(F)(F)F,27.8 min
9,CCN(CCCOc1ccc2c(Nc3cc(CC(=O)Nc4cccc(F)c4)[nH]n3)ncnc2c1)CCOP(=O)(O)O,> 30 min
10,Cc1nn2c(c1-c1ccccc1-c1ccccc1)N(Cc1ccc(C(=O)O)s1)CCC2,7.81 min
11,COc1cccc(CNc2ccc(S(=O)(=O)Nc3ncccn3)cc2)c1O,> 30 min
12,NS(=O)(=O)c1ccc(Cc2c(-c3cccc(-c4ccccc4)c3)nn(-c3nc(C(=O)O)cs3)c2CC2CC2)cc1,> 30 min
13,CCOC(=O)c1ccc(-c2ccc3ncnc(NCCc4cnc[nH]4)c3c2)o1,> 30 min
14,C[C@@H](CCC[C@@H]1SC[C@H]2NC(=O)N[C@H]12)C(=O)O,> 30 min
15,Cc1nc(Nc2n[nH]c3c2CN(C(=O)N[C@H](CN(C)C)c2ccccc2)C3(C)C)c2sccc2n1,21.9 min
16,C=C1C(=O)O[C@H]2[C@@H]1CCC(C)=CCC[C@@]1(C)O[C@@H]21,16.7 min
17,O=[S+]([O-])(Nc1nccs1)c1ccc(NCc2cc(Cl)cc(Br)c2O)cc1,12 min
18,CC(C)Oc1cccc(-c2csc(N3CCC(C(N)=O)CC3)n2)c1,3.09 min
19,COc1ccc(C2c3c(ncn(CCN4CCOCC4)c3=N)Oc3ccc4ccccc4c32)cc1OC (configuration not stated),3.6 min
20,Cc1cc(C)nc(NC(=S)N2CCN(Cc3ccc(C(F)(F)F)cc3)CC2)c1,> 30 min
21,O=c1cc(/C=C/c2c(F)cccc2Cl)[nH]c2ccccc12,17.8 min
22,O=C(Nc1cccc(Cc2ccccc2)n1)c1ccc(-c2cccc([N+](=O)[O-])c2)o1,1.7 min
23,CN(C(=O)c1cn2c(-c3ccc(C(F)(F)F)cc3)cnc2cn1)c1ccc(C#N)cc1,> 30 min
24,CC/C=C\C/C=C\C/C=C\C/C=C\C/C=C\C/C=C\CCC(=O)NCCO,4.94 min
25,CN(C)[C@@H]1CCN(c2cccc(Nc3nn4c(=O)c5ccccc5nc4s3)c2)C1,> 30 min
26,COC12C(COC(N)=O)C3=C(C(=O)C(C)=C(N)C3=O)N1CC1C2N1C (configuration not stated),> 30 min

row,Compound,half-life
1,CCCCNC(=O)CN1CCN(c2ncc(NC(=O)c3ccc(Cl)cc3)cc2C(=O)O)CC1,> 30 min
2,N#Cc1cccc(Nc2ncc(-c3cccc4ccccc34)o2)c1,> 30 min
3,Cc1ccc(NC(=O)Nc2cc3c(cc2N2CCCCC2)n(C)c(=O)n3C)cc1Cl,6.3 min
4,COc1cc(Nc2nc(-c3ccncc3)nc3ccccc23)ccc1F,7.35 min
5,O=C(c1ccc2c(c1)ncn2-c1cccc(Cl)c1)N1CCCCC1,5.83 min
6,Cc1cnc(-c2ccccc2C2COC2)nc1NCc1ccc(-c2cccnc2)cc1,12 min
7,CC(C)(O)C=CC(=O)[C@](C)(O)[C@H]1[C@H](O)C[C@]2(C)[C@@H]3CC=C4[C@@H](C=C(O)C(=O)C4(C)C)[C@]3(C)C(=O)C[C@@]12C,> 30 min
8,Cc1cc(C)nc(NC(=S)N2CCN(c3ccc(C(F)(F)F)cc3Cl)CC2)c1,> 30 min
9,Cc1cccc(-n2c(C)cc(C=C(C#N)C#N)c2C)c1,1.64 min
10,O=C(O)c1ccncc1Nc1nn(CCN2CCC(F)(F)CC2)c2ccc(F)cc12,22.2 min
11,CC(=O)OC[C@]12CCC(C)=C[C@H]1O[C@@H]1[C@H](O)[C@@H](OC(C)=O)[C@@]2(C)[C@]12CO2,> 30 min
12,Cc1ccc(-c2nnc(N3CCC(C(N)=O)CC3)s2)cc1,6.38 min
13,O=[S+]([O-])(Nc1nccs1)c1ccc(NCc2cccc(Cl)c2)cc1,15 min
14,Cc1cnc(-c2ccccc2C(F)F)nc1NCC1CN(c2cnccn2)C1,1.8 min
15,COc1cc2c(cc1OC)C(C[C@H]1CN(S(=O)(=O)c3cccc(C#N)c3)CC[C@H]1CC(=O)O)=NCC2,> 30 min
16,Cc1ccc(CSCc2ccc(C(=O)NC3CC3)o2)cc1,1.7 min
17,CN(Cc1ccc(/C=C/C(=O)NO)cc1)CC12CC3CC(CC(C3)C1)C2,2.89 min
18,Cc1ccc(S(=O)(=O)Nc2cc(F)c(F)cc2C(=O)Nc2nc(-c3ccccc3)cs2)cc1,4.6 min
19,Cc1ccc(C(=O)NC2CCN(c3cnn(CC4CC4)c(=O)c3)CC2)cc1C,16.3 min
20,Cc1ccc(S(=O)(=O)Nc2ccccc2C(=O)Nc2nccs2)cc1,1.6 min
21,NC(=O)C1CCN(c2nc(-c3ccc(Oc4ccccc4)cc3)cs2)CC1,18.5 min
22,NC(=O)C1CCN(c2ncc(-c3ccc4c(c3)OCCO4)s2)CC1,4.94 min
23,CC(C)c1ccccc1-c1ncc(F)c(NCc2ccc(-c3ccn[nH]3)cc2)n1,2.8 min
24,Cc1onc(-c2ccc(F)cc2)c1COc1ccc(C(=O)N2CCS(=O)(=O)CC2)cn1,9.64 min
